{"source": "patent EP1379135B1", "about": "“FORMULATIONS COMPRISING ENTRAPPED ACTIVE INGREDIENTS AND USES THEREOF” (THE SCRIPPS RESEARCH INSTITUTE, priority 2001, dated 2002)", "key": {"COX-1 protein": {"system": "COX-1 protein", "assay": "COX-1 protein expression in chondrocytes (Western Immunoblot)", "assay_type": "cell-based, human", "method": "(§1) Whole cell extracts were prepared from 3 x 10^6 chondrocytes stimulated as described above by lysing the cells on the plate with ice cold lysis buffer (10 mM TrisHCl pH 7.6, 158 mM NaCl, 1 mM EDTA, 0.1% SDS, 1% Triton X-100, leupeptin […], aprotinin 1µg/ml, and 0.5 mM PMSF), which was added immediately before use. The lysates were transferred to Eppendorf tubes and centrifuged at 20,000 g for 30 min at 4 °C. The supernatants were transferred into fresh tubes, and the protein concentration was determined by Bradford assay. Similar amounts of protein were separated by 10% SDS PAGE and transferred to a nitrocellulose filter (Schleicher & Schuell, Keene, NH) by electroblotting. The filter was blocked overnight in 5% milk powder/TBS-T solution and then further incubated with one of the following antibodies: anti-iNOS (C-19, Santa Cruz Biotechnology, Inc., Santa Cruz, CA), anti-COX-2 (Cayman Chemical, Ann Arbor, MI), anti-COX-1 (H-3, Santa Cruz Biotechnology, Inc.), anti-phospho-JNK (phosphoThr 183 /Tyr 185, New England Biolabs, Inc., Beverly, MA), anti-phospho-p38MAP (phospho-Thr […]/Tyr 182, New England Biolabs, Inc.) or anti-phospho-ERK (phosphoThr 180/Tyr 182, New England Biolabs, Inc.) for 2 hrs. […]"}, "[1]": {"assay": "Induction of TGFα1 in chondrocytes with IL-1β", "assay_type": "cell-based, human", "conditions": "together with IL-1β"}, "IL-6": {"system": "IL-6", "assay": "IL-6 production in IL-1β stimulated chondrocytes (ELISA)", "assay_type": "cell-based, human", "conditions": "p < 0.001", "method": "(§2) Chondrocytes were plated at 40,000 cells/well in 96-well plates in the presence of 1 % FBS. After 48 h, the medium was changed, and the cells were stimulated with IL-1β (Sigma) at a concentration of 5 ng/ml for 24 h. NO production was detected as NO2 accumulation in the culture supernatants by the Griess reaction as described elsewhere (Heval et al., (1994) Methods Enzymol. 233:250). IL-6 in the culture supernatants was measured by ELISA (R&D Systems, Minneapolis, MN) in accordance with the supplier's protocol."}, "ERK": {"system": "ERK", "assay": "IL-1β induced MAP kinase activation, ERK (phospho Western blot)", "assay_type": "cell-based, human", "conditions": "induced by IL-1β", "method": "as §1"}, "iNOS protein": {"system": "iNOS protein", "assay": "iNOS protein expression (Western Immunoblot)", "assay_type": "cell-based, human", "method": "as §1"}, "JNK": {"system": "JNK", "assay": "IL-1β induced MAP kinase activation, JNK (phospho Western blot)", "assay_type": "cell-based, human", "conditions": "induced by IL-1β", "method": "as §1"}, "COX-2 mRNA": {"system": "COX-2 mRNA", "assay": "COX-2 mRNA expression in IL-1β stimulated chondrocytes (Northern Blot)", "assay_type": "cell-based, human", "method": "Total RNA was isolated from 2 x 10^6 chondrocytes stimulated using the STAT-60 reagent (Tel-Test, Friendswood, TX). RNA for each sample was quantified photometrically, and 5 µg was separated on 1.2% agarose, 6% formaldehyde gels. After electrophoresis, the gels were photographed, and the RNA was transferred onto HybondN nylon membranes (BRL, Baithesburg, MD) by capillary blotting. Membranes were air-dried and incubated for 2 hrs at 80°C. Prehybridization was done for 2 hrs at 60°C in 5 x SCC, 1 mM EDTA, 0.2% SDS and 5 x Denhardt solution. Radio-labeled probe was added and hybridization was carried out overnight at 60°C. After hybridization, the filters were rinsed twice in 2 x SSC, 0.1% SDS, washed once in 2 x SCC, 0.1 % SDS at 60°C and once in 0.2 x SCC, 0.1 % SDS at 60°C. The membranes were covered with plastic wrap and exposed with an intensifying screen for 12 hr at -70°C. The probes used for the hybridization were prepared as described earlier (Geng et al., (1993) J. Immunol. 151:6692; Geller et al., (1993) Proc. Natl. Acad. Sci. USA 90:3491)."}, "p38": {"system": "p38", "assay": "IL-1β induced MAP kinase activation, p38 (phospho Western blot)", "assay_type": "cell-based, human", "conditions": "induced by IL-1β", "method": "as §1"}, "[2]": {"system": "IL-1β induced NO production in normal human articular chondrocytes", "assay": "IL-1β induced NO production in cultured chondrocytes (NO2 accumulation, Griess reaction)", "assay_type": "cell-based", "method": "Chondrocytes were isolated from the cartilage by collagenase digestion and maintained in continuous monolayer cultures in DMEM containing 10% fetal bovine serum (FBS). Cell viability after chondrocyte isolation by collagenase digestion of normal cartilage was >95%. This level was maintained for at least 96 hrs post mortem. […] Experiments reported were performed with primary or first passage cells.\nas §2"}, "COX-2 protein": {"system": "COX-2 protein", "assay": "COX-2 protein expression in IL-1β stimulated chondrocytes (Western Immunoblot)", "assay_type": "cell-based, human", "method": "as §1"}}, "note": "Entries after “also recorded” stand apart in the source; their conditions may differ. Read-outs that look alike come from different tables or passages of the source.", "data": [{"smiles": "CC(=O)N[C@H]1C(O)O[C@H](CO)[C@@H](O)[C@@H]1O", "note": "(stereo partly shown) [GlcNAc, N-acetylglucosamine]", "values": [{"measurement": "expression of the constitutively expressed COX-1 protein", "setting": "COX-1 protein", "result": "did not affect"}, {"measurement": "induction of TGFα1", "setting": "[1]", "result": "synergistic with IL-1β"}, {"measurement": "IL-6 production", "setting": "IL-6", "result": "inhibited"}, {"measurement": "ERK MAP kinase activation", "setting": "ERK", "result": "does not inhibit"}, {"measurement": "expression of iNOS protein", "setting": "iNOS protein", "result": "strongly inhibited"}, {"measurement": "JNK MAP kinase activation", "setting": "JNK", "result": "does not inhibit"}, {"measurement": "expression of COX-2 mRNA", "setting": "COX-2 mRNA", "result": "inhibited"}, {"measurement": "p38 MAP kinase activation", "setting": "p38", "result": "does not inhibit"}, {"measurement": "NO production triggered by IL-1β", "setting": "[2]", "result": "suppressed NO production; also recorded: stronger inhibition of NO production than GA"}, {"measurement": "concentration of maximal inhibitory effect on NO production", "setting": "[2]", "result": 20, "unit": "mM"}, {"measurement": "concentrations not effective in inhibiting NO production", "setting": "[2]", "result": "lower than 1 mM"}, {"measurement": "IC50", "setting": "[2]; Homo sapiens, Chondrocyte, IL-1β 5 ng/ml for 24 h, GlcNAc vs GA p < 0.01, read-out: IC50 (inhibition of NO production)", "result": "4.1 ± 1.3", "unit": "mM"}, {"measurement": "inhibitory activity on IL-1β induced NO production", "setting": "[2]; concentration of 10 mM", "result": "demonstrated inhibitory activity"}, {"measurement": "NO production triggered by IL-1β", "setting": "[2]; listed as GIcNAc", "result": "measurably inhibited NO production in the lower millimolar range"}, {"measurement": "concentrations not effective in inhibiting NO production", "setting": "[2]; listed as GIcNAc", "result": "below 1 mM"}, {"measurement": "expression of COX-2 protein", "setting": "COX-2 protein", "result": "inhibited"}]}]}
